Experimental data from patent US7351397B2, “Stabilization of radiopharmaceutical compositions using hydrophilic 6-hydroxy chromans” (CIS bio international, priority 2000, dated 2008).

Experiments:
Type in all cases: physicochemical
[1] = Radiolabelling yield (RCP) by reversed phase HPLC of 99mTc-labelled depreotide from lyophilized kits with Trolox; conditions: prepared from formulated kits
Experimental: Lyophilized kit vials were prepared containing depreotide, Trolox®, and other components as described in Table 3.
Some of the formulations were also radiolabelled in a heated preparation (heat in a boiling water bath for 10 minutes).

[2] = Radiolabelling yield (RCP) by reversed phase HPLC of 99mTc-labelled monoamine, diamide, single thiol peptide chelator with and without Trolox
Experimental: Lyophilized kit “placebo” vials were prepared containing sodium glucoheptonate dihydrate, edetate disodium dihydrate, and stannous chloride dihydrate at the concentrations set forth in Table 1 (control formulation).
The peptide chelator was radiolabelled with ^99mTc in the presence and absence of Trolox®. The peptide chelator was dissolved in water at a concentration of 1 mg/mL, and 50 μg (50 μL) of the peptide was added to each of three placebo vials. Ethanol and Trolox® were added to the control and Trolox®, preparations as described in Example 11. In addition, 100 μL phosphate buffered saline (PBS) was added to each preparation.

[3] = Radiolabelling yield (RCP) by reversed phase HPLC of 99mTc depreotide from lyophilized kits after accelerated temperature (40° C.) storage; conditions: lyophilized kits thermally stressed by accelerated temperature storage
Experimental: Lyophilized kits were prepared containing depreotide, Trolox®, and other components as described in Table 5. […] The kits were stored for one week at 40° C. Some kits were also stored at −10° C. as controls.

[4] = Radiolabelling yield (RCP) by reversed phase HPLC of 99mTc-labelled bisamide bisthiol non-peptide chelator with and without Trolox
Source text: The non-peptide chelator was radiolabelled with ^99mTc in the presence and absence of Trolox® using the placebo vial heated preparation procedure as described in Example 4.

[5] = Radiolabelling yield (RCP) by reversed phase HPLC of 99mTc-labelled glycoprotein IIb/IIIa receptor-binding peptide with and without Trolox
Experimental: Lyophilized kit vials were prepared containing the peptide (50 μg), sodium glucoheptonate dihydrate (10 mg), stannous chloride dihydrate (50 μg), and edetate disodium dihydrate (100 μg). The formulation was adjusted to pH 7.4 prior to lyophilization.
The lyophilized kits were radiolabelled with ^99mTc in the presence and absence of Trolox®. To the Trolox® preparation was added 2 mg Trolox® in 100 μL ethanol and 100 μL saline. The ethanol was necessary to aid in the dissolution of the Trolox®. To the control preparation was added 100 μL ethanol and 100 μL saline to account for the additional saline or ethanol added with the Trolox.

[6] = Radiolabelling yield (RCP) by reversed phase HPLC of 99mTc-labelled depreotide from lyophilized kits with gentisic acid; conditions: when included in formulated kits
Experimental: Lyophilized kit vials were prepared containing depreotide, GA, and other components as described in Table 1. Formulations were adjusted to pH 7.4 or 8.5 (as noted) prior to lyophilization.

Row | SMILES | effect on radiolabelling yield and stability of 99mTc depreotide [1] | effect on radiolabelling yield and stability of 99mTc-labelled peptide chelator [2] | stabilization of 99mTc-depreotide [3] | effect on radiolabelling yield and stability of 99mTc-labelled non-peptide chelator [4] | effect on radiolabelling yield and stability of 99mTc-peptide [5] | effect on radiolabelling yield and stability of 99mTc-depreotide [6]
1 | Cc1c(C)c2c(c(C)c1O)CCC(C)(C(=O)O)O2 (stereo not drawn) [Trolox®, 6-hydroxy-2,5,7,8-tetramethylchroman-2-carboxylic acid] | increases the radiolabelling yield and the stability | increases the radiolabelling yield and the stability | stabilizes | increases the radiolabelling yield and the stability | increases the radiolabelling yield and the stability | 
2 | O=C(O)c1cc(O)ccc1O [gentisic acid, Gentisic acid] |  |  |  |  |  | decreases the radiochemical purity
